Like-named read-outs stand apart in the source and are kept apart here.
Experiments:
recombinant human PKLR = recombinant human PKLR (Homo sapiens (Human), UniProt P30613); experiment: Human PKLR activation assay (Kinase-Glo Plus luminescence); format: biochemical
Method: (§1) Measuring in vitro activation of recombinant human PKLR Compound activation of recombinant human PKLR pyruvate kinase activity was determined by biochemical assay. N-terminal His-tagged enzyme was sourced from R&D Systems and its substrates phosphoenolpyruvate (PEP) and ADP from Sigma-Aldrich and 2Bscientific Ltd, respectively. The Kinase-Glo® Plus luminescence assay was from Promega. All other reagents were from Sigma-Aldrich. Test Compounds were prepared as 10 mM DMSO stocks and dilution series prepared in DMSO for direct dilution into Assay Buffer comprising 50 mM imidazole, 50 mM KCl, 7 mM MgCl2, 0.01% Tween20, 0.05% BSA (pH 7.2).
Human PKLR was diluted into Assay Buffer to a final concentration of 5 pM. […]
(§2) After 60 minutes' incubation on an orbital shaker (300 rpm, 26° C.), enzyme activity was quantified by the luminescent detection of generated ATP. Kinase-Glo® Plus reagent was added to each well and the plates incubated for a further 15 minutes on an orbital shaker in the dark (300 rpm, 26° C.) before luminescence measurement on a plate reader (PHERAstar® FSX, BMG Labtech).
(§3) Percentage activation was calculated by normalising […] signals to plate LOW (DMSO vehicle) and HIGH (5 μM TEPP-46) controls. EC50 and Emax values were determined from 4-parameter logistic fits of compound concentration-response curves.

[1] = molecular target: pyruvate kinase (PK) activity in human CD4+ T cell lysates (Homo sapiens, UniProt P14618); experiment: CD4+ T cell pyruvate kinase assay; format: cell-based; conditions: human CD4+ T cells incubated with compound 20 minutes, then lysed; ΔAbsorbance OD570
Method: Compound activation of pyruvate kinase in human CD4+ T cell lysates was determined by biochemical assay. Primary CD4+ T cells were used rather than cancer cell lines to improve the disease relevance of the assay. The PK assay was sourced from Abcam. All other reagents were sourced from ThermoFisher. Test compounds were prepared as 10 mM DMSO stocks and dilution series prepared in DMSO for addition to intact CD4+ T cells cultured in RPMI media containing 10% FBS.
Human CD4+ T cells were incubated with compound for 20 minutes and then washed twice in 1×PBS before resuspension in Abcam PK lysis buffer to prepare cell lysates. 10 μl PK assay Reaction Mix was added per well, including OXIRED™ PROBE. The plates were read using a BMG Labtech Pherastar plate reader at OD570 nm in kinetic mode for […] (25 cycles of 2 minutes) at 25° C., protecting from light.
Plates were blank-subtracted and ΔAbsorbance calculated by subtracting the first plate read within the linear range from the plate read at the timepoint of interest. PK activity is expressed as ΔAbsorbance and plotted against log [Compound].

recombinant human PKM2 = recombinant human PKM2 (Homo sapiens (Human), UniProt P14618); experiment: Human PKM2 activation assay (Kinase-Glo Plus luminescence); format: biochemical; conditions: for Emax: read-out: hPKM2 Emax
Method: as §1, with “PKM2” for “PKLR”, “hPKM2” for “enzyme”
Human PKM2 was diluted into Assay Buffer comprising 50 mM imidazole, 50 mM KCl, 7 mM MgCl2, 0.01% Tween20, 0.05% BSA (pH 7.2) to a final concentration of 5 pM. Enzyme-Assay Buffer mix was dispensed into a 384-well shallow-well white-walled plate (PerkinElmer) and Test Compounds added by acoustic dispense (Echo®, Labcyte Inc.).
as §2, §3

Sequence of recombinant human PKM2 (P14618 whole entry): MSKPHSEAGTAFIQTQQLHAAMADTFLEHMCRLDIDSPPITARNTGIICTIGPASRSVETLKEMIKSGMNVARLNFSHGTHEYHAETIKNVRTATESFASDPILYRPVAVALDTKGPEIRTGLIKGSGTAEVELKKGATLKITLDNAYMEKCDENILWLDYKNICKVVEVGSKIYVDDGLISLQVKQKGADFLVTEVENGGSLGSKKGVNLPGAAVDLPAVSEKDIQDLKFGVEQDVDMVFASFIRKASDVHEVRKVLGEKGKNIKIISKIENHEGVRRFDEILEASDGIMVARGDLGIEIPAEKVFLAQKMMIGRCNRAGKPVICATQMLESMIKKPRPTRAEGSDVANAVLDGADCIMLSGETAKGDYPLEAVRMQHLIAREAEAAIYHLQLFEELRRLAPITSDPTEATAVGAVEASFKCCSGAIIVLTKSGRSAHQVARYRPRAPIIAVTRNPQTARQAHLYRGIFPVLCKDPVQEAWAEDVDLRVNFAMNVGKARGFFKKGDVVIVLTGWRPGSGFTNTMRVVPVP
Sequence of recombinant human PKLR (P30613 whole entry): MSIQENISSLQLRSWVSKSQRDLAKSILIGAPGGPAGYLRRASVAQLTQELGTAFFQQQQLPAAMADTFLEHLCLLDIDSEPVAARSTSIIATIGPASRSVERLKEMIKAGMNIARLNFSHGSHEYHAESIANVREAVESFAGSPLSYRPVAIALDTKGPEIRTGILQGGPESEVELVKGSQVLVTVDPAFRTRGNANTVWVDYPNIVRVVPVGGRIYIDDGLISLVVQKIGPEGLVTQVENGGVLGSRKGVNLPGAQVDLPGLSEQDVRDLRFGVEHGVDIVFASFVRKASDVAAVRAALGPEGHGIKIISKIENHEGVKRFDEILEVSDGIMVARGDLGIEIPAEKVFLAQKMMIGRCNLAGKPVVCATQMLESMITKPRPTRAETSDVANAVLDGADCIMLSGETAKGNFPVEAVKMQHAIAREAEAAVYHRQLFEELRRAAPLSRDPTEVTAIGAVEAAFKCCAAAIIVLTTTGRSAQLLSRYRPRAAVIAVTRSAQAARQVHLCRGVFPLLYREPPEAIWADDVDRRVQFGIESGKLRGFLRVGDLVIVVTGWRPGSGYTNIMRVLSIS
Sequence of pyruvate kinase (PK) activity in human CD4+ T cell lysates (P14618 2-531 limits assumed): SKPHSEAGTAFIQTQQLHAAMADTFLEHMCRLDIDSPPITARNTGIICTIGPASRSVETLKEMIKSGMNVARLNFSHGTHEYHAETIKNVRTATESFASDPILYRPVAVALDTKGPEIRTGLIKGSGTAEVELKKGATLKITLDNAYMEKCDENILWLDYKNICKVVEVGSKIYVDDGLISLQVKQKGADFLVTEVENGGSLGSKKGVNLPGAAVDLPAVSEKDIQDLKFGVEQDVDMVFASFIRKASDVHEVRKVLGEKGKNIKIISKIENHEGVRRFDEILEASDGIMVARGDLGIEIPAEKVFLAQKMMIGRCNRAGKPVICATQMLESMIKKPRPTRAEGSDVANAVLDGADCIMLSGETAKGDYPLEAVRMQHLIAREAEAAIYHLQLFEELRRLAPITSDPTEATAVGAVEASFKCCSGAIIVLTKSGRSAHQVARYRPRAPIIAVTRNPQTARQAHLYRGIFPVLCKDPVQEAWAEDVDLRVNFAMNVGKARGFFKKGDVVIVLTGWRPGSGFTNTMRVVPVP

Work on O=c1c2ccc(S(=O)(=O)c3cn[nH]c3)cc2cnn1Cc1ccn(C2CC2)n1 [Example 1, 6-((1H-pyrazol-4-yl)sulfonyl)-2-((1-cyclopropyl-1H-pyrazol-3-yl)methyl) phthalazin-1(2H)-one] yielded an Emax (recombinant human PKLR; percentage activation normalised to DMSO (LOW) and 5 μM TEPP-46 (HIGH), read-out: hPKLR Emax) of 134%, an EC50 (recombinant human PKLR; recombinant His-tagged hPKLR, activation, 4-parameter logistic fit) of 10.3 nM and an EC50 [1] of 82.5 nM. It also gave an Emax (recombinant human PKM2; data from repeated experiments, normalised to DMSO and 5 μM TEPP-46) of 107%, an EC50 (recombinant human PKM2; data from repeated experiments, read-out: hPKM2 EC50) of 107 nM and an Emax (recombinant human PKM2; percentage activation normalised to DMSO (LOW) and 5 μM TEPP-46 (HIGH)) of 114%. It also gave an EC50 (recombinant human PKM2; recombinant His-tagged hPKM2, activation, 4-parameter logistic fit) of 64.5 nM.

From patent US20250051313A1, “PHTHALAZINE DERIVATIVES AS PYRUVATE KINASE MODULATORS” (Sitryx Therapeutics Limited, priority 2021, published 2025)
